In general, Kd refers to the equilibrium constant for the complex coming apart. A higher Kd goes with a looser complex.

From patent publication US20260256822A1, “ENTRY-MODULATING AGENTS AND USES THEREFOR” (priority 2022, published 2026) come the findings set out here.

For assay [1], the target named is New Delhi metallo-beta-lactamase 2 (NDM2) (Klebsiella pneumoniae, UniProt C7C422, P28A). Put plainly: biochemical.
In assay [2] the target is PfCyRPA (Plasmodium falciparum, UniProt Q8IFM8). Put plainly: biochemical.
Sequence of PfCyRPA (Q8IFM8 29-362): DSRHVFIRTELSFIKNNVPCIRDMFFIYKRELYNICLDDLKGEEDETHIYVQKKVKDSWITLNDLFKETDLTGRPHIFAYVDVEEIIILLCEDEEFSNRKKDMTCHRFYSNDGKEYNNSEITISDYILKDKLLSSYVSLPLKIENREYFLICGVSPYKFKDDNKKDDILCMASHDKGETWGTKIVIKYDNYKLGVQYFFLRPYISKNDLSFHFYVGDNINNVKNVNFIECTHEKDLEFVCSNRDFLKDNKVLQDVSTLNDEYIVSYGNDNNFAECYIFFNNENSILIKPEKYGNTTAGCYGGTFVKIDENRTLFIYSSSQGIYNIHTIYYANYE

Molecules are shown by their SMILES.

Sequence of New Delhi metallo-beta-lactamase 2 (NDM2) (C7C422 29-270 P28A (numbered from the first residue shown)): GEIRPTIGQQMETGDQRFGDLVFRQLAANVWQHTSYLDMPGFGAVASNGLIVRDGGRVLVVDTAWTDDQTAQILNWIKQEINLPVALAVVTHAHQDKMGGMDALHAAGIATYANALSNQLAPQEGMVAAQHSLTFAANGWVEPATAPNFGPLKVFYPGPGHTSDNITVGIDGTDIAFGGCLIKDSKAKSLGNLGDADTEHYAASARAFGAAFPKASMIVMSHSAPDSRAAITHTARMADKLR

Take `On1ccccc1=S` [1-Hydroxy-2(1H)-pyridinethione]: the Kd in assay [1] was 894 µM; in assay [2] it was 169 µM.
